# Tests used:
# SspH2 = biological target: T1, SspH2 (Salmonella typhimurium, UniProt D0ZPH9); experiment: Intact LC-MS labelling dilution series; format: binding; details: dilution series 100–6.25 μM, 24 hours at 4 °C
# T1 construct: Recombinant SspH1 (aa 161–700) and SspH2 (aa 166–783) were both characterised; His-tag (N, cleaved yes); made in house; host or cells: E. coli BL21
# Procedure: Fig. 3 Validation of HTC hit compounds by intact MS. Labelling heatmaps of dilution series (100–6.25 μM) of compounds 4–10 with (A) WT SspH1 and (B) C492K SspH1. Labelling heatmaps of dilution series of (C) compound 6 and (D) compound 7 with bacterial and human ubiquitin binding proteins. Recombinant proteins were incubated at either 1.0 or 0.5 μM with 50 μM fragments for 24 hours at 4 °C, before fragment labelling was analysed by intact LC-MS. Bacterial proteins are shown in bold and human proteins in italic fonts. (E)–(H) Kinetics analyses: time courses (0–12 hours) of compound labelling (100–1.56 μM) of SspH1 and SspH2 (0.5 μM) for (E) SspH1 and compound 7, and (F) SspH2 and compound 6. Measurements were performed in technical triplicates. Labelling percentages were plotted against time in GraphPad Prism v.10, and curves fitted separately for each replicate using one-phase association, with constraints Y0 = 0 and plateau = highest labelling percentage. Graphs for SspH1 and compound 6, and SspH2 and compound 7 are shown in Fig. S4A and B. Rate constants (kobs, as given by Graphpad Prism calculated K values) were plotted against fragment concentration in triplicate for (G) SspH1 and (H) SspH2. Straight lines were fitted with constraint Yintercept = 0. For SspH2 kinetics, 100 μM kobs was outside the linear range. […]
# SspH1 (C492) = biological target: T2, SspH1 (C492) (Salmonella typhimurium, UniProt D0ZVG2); experiment: IA-DTB competitive chemoproteomics in spiked HEK293T lysate; format: binding; details: HEK293T lysate spiked with recombinant protein, four hours at RT
# T2 construct: Recombinant IpaH9.8 (21–545) and SspH1 (161–700) were incubated at 0.5 μM; His-tag (N, cleaved yes); made in house; host or cells: E. coli BL21
# T2 sequence (D0ZVG2 161-700): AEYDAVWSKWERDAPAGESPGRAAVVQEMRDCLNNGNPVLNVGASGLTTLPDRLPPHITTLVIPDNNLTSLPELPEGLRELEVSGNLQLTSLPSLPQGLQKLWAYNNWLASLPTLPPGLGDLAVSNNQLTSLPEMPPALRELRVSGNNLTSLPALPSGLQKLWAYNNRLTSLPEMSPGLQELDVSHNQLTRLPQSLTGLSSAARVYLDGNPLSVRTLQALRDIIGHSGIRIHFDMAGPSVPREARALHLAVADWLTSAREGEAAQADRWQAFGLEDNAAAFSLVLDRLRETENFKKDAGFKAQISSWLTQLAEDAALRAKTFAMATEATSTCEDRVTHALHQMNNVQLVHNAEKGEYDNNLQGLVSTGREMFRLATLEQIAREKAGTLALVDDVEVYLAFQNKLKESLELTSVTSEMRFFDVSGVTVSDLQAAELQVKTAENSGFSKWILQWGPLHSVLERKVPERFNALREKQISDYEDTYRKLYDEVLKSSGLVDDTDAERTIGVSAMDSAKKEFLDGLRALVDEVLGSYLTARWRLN
# Procedure: HEK293T lysate supplemented with recombinant SspH1 (161–700) and SspH2 (166–783) was treated with a dilution series […] of either compound 6 or 7 for four hours at RT. Following compound treatments, we used an iodoacetamide-desthiobiotin (IA-DTB) competitive chemoproteomics workflow to assess cysteine engagement.[52] Comparison of DMSO treated lysate with compound treated lysate enabled identification of peptides where IA-DTB labelling of cysteines was blocked due to fragment engagement (Fig. S5). […] Competition of the SspH2 C580 peptide occurred at lower concentrations compared to the SspH1 C492 peptide, which corroborated our previous kinetics experiments that both compounds label SspH2 faster than SspH1 (Fig. S4).
# Fig. 5 Characterisation of protein interactions by compounds 6 and 7. (A) SspH1 and SspH2 catalytic cysteine labelling with compound 6 (100–3.125 μM, 4 hours) in HEK293T lysate spiked with recombinant SspH1 and SspH2. Data are presented as mean ± SEM, n = 4. The curves were fitted with GraphPad Prism 10 using four parameter nonlinear regression with baseline correction to DMSO-treated samples. (B) SspH1 and SspH2 catalytic cysteine labelling with compound 7 (100–3.125 μM, 4 hours) in HEK293T lysate spiked with recombinant SspH1 and SspH2. Data are presented as mean ± SEM, n = 4. The curves were fitted with GraphPad Prism 10 using four parameter nonlinear regression with baseline correction to DMSO-treated samples. (C) Volcano plot of IA-DTB competition in SspH1 expressing HEK293T cells treated with compound 6 (50 μM, 4 hours). (D) Volcano plot of IA-DTB competition in SspH2 expressing HEK293T cells treated with compound 6 (50 μM, 4 hours). Data is shown as compared to DMSO treated samples, with competed peptides in the upper left-hand quadrant. Competed catalytic cysteine-containing peptides of HECT E3s (yellow), UCH DUBs (blue) and OTU DUBs (purple) are indicated. All proteomics experiments were performed with technical quadruplicates.
# A pellet of 50 × 10^6 HEK293T cells was resuspended in 5 mL lysis buffer (50 mM HEPES pH 8.0, 150 mM NaCl, 1% IGEPAL, 0.1% SDS, 0.5% Na-deoxycholate, supplemented with protease inhibitor cocktail (Sigma-Aldrich, P8340)). The lysate was sonicated and centrifuged (10 min, 17 000 × g) and the soluble fraction isolated. Protein concentrations were measured using a Rapid BCA Gold Protein Assay Kit (Thermo Scientific, A53226) and diluted to 0.75 mg mL^−1 with lysis buffer. The lysate was then spiked with 0.2 μM of each recombinant SspH1 (aa 161–700) and SspH2 (aa 166–783). For each condition, four wells were treated and processed separately, representing four technical replicates. 2 μL of 100× stocks of compounds 6 and 7 in DMSO (10–0.156 mM, and DMSO only control), and 200 μL lysate was added to a 96-well plate. […]
# T1 sequence (D0ZPH9 166-783): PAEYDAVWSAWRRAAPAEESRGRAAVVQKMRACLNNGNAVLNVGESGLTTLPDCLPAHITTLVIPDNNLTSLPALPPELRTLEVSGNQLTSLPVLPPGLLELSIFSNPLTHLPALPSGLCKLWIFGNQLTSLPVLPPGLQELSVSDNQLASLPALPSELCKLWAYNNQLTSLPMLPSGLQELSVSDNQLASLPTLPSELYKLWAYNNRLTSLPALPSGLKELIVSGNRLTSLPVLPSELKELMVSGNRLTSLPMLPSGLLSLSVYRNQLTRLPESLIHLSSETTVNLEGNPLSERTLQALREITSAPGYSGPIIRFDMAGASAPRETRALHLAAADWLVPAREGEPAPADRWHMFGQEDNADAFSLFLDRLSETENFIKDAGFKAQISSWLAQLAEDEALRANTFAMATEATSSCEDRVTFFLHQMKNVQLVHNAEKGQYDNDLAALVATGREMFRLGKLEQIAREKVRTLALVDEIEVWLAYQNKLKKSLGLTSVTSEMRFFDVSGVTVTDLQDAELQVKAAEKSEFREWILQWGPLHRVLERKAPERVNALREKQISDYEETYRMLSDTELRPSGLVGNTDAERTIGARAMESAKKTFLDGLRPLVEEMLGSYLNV
smiles,measurement,setting,value
Cc1cc(-c2nc3ccccc3n2C2CCN(C(=O)CCl)CC2)cc(C)c1O.Cl [compound 6],labelling of SspH2,SspH2,very strong labelling
same,competition of IA-DTB labelling of the C492 peptide for SspH1,SspH1 (C492),concentration-dependent competition
Cl.O=C(CCl)N1CCC(n2c(-c3ccc(C(F)(F)F)cc3)nc3ccccc32)CC1 [compound 7],labelling of SspH2,SspH2,very strong labelling
same,competition of IA-DTB labelling of the C492 peptide for SspH1,SspH1 (C492),concentration-dependent competition

# Source: PMC12584752, “Covalent fragment screening to inhibit the E3 ligase activity of bacterial NEL enzymes SspH1 and SspH2” (RSC Chemical Biology, 2025)
